Laboratory results taken from patent publication US9512168B2, “Compound, composition and method for treating and/or ameoliorating kidney disease” (Trineo Biotechnology Co. LTD., priority 2014, dated 2016).

How the values were obtained:
MDCK cells = test: Cisplatin induced in vitro kidney cell apoptosis (mitochondria membrane potential, DiOC6 staining); assay type: cell-based, canine; details: FIG. 1A
Procedure: Madin-Darby canine kidney (MDCK) cells (1.5×10^5 cells/mL) were cultured and maintained in Dulbecco's modified Eagle medium (DMEM) supplemented with 10% fetal bovine serum (FBS), 100 units/mL penicillin, […] streptomycin, 2 mM L-glutamine, non-essential amino acids and sodium pyruvate, and maintained in 5% CO2 at 37° C. until reached 80% confluence, then were subject to cell passages.
MDCK cells were cultured in according to procedures described in the “Materials and Methods” section. To start the experiment, MDCK cells were first incubated with 50 μM cisplatin for 4 hrs, then various concentrations of the compound of formula (I) ([…] or 100 μg/mL) or the YKII-10 composition of example 1.2 (25 to 100 μg/mL) were given to cisplatin-treated cells and further incubated for another 24 hrs. Mitochondria membrane potentials were then measured by staining the live cells with fluorescent dyes (e.g., 50 nM DiOC6), in which 50 nM DiOC6 were added to cells and incubated at 37° C. for 30 min. The cells were then washed twice with phosphate buffer solution before subjecting to microscopy analysis using the inverted fluorescent microscope. […] Results are illustrated in FIGS. 1A and 1B.

Blb/c mice = test: Lipopolysaccharide (LPS) induced in vivo kidney inflammation, urine protein; details: oral 100 mg/Kg; LPS 2.5 mg/Kg/day i.p. for 5 days; urine on day 5 and day 10; FIG. 3
Procedure: Blb/c mice were kept in pathogen-free environment under 12:12 light-dark cycle with food (laboratory rodent diet 5001 purchased from PMI Nutrition International Inc. MO, USA) and water (i.e., distilled water) provided ad libitum, ambient temperature and relative humidity were respectively set at 22±3° C. and 50±20%. All procedures involving animal studies of the present disclose e comply with the “Guideline for the Care and Use of Laboratory Animals” issued by The Chinese-Taipei Society of Laboratory Animal Sciences.
In this example, to evaluate the therapeutic or prophylactic function of the composition of example 1.2, animals were first injected intraperitoneally with lipopolysaccharide (LPS) to induce in vivo kidney inflammation before being subject to the treatment of the composition of example 1.2.
Blb/c mice (6 weeks old) were randomly assigned to two groups, and injected intraperitoneally with lipopolysaccharide (LPS, 2.5 mg/Kg/day) for 5 consecutive days so as to induce kidney inflammation. […] Urine samples were respectively collected on the fifth and the tenth day after the experiment started, and analyzed for the level of urine protein therein. […]

SMILES: C[C@H](CCC(=O)O)[C@H]1C[C@H](O)[C@@]2(C)C3=C(C(=O)C[C@]12C)[C@@]1(C)CCC(=O)C(C)(C)[C@@H]1C[C@@H]3O [compound of formula (I)]
- reversal of cisplatin-induced apoptosis of MDCK cell (MDCK cells; 50 μg/mL or 100 μg/mL for 24 hrs after 50 μM cisplatin for 4 hrs): capable of reversing
- recovery on the membrane potential (MDCK cells; 100 μg/mL for 24 hrs after 50 μM cisplatin for 4 hrs, MDCK cells): about 80%
- urine protein level (Blb/c mice): effective in reducing
